Measurements from article PMC5267425, “Identification of small molecule modulators of HIV-1 Tat and Rev protein accumulation” (Retrovirology, 2017).

Tested on: cellular gene expression in HeLa rtTA HIV∆Mls cells

## Cc1cc(NCc2cccnc2)n2ncc(-c3ccc(Cl)cc3)c2n1 [Compound 791, 3-(4-chlorophenyl)-5-methyl-N-(3-pyridinylmethyl)pyrazolo[1,5-a]pyrimidin-7-amine]
  TRNP1 expression fold change: 0.822
  TRNT1 expression fold change: 1.353
  TRUB2 expression fold change: 0.915
  TSEN2 Mean fold change: 1.417
  TSEN15 Mean fold change: 1.483
  TSPAN14 expression fold change: 1.164
  TSR2 expression fold change: 0.870
  TSSK6 Mean fold change: 1.615
  TTC9C expression fold change: 1.292
  TTC13 Mean fold change: 1.539
  TTC17 Mean fold change: 1.465
  TTLL4 expression fold change: 1.144
  TTRAP Mean fold change: 1.772
  TUBA1C expression fold change: 0.608
  TUBGCP4 expression fold change: 1.159
  TXNDC11 expression fold change: 0.839
  TXNRD2 expression fold change: 0.682
  UBAP2L expression fold change: 0.784
  UBAP2 expression fold change: 0.809
  UBE2CBP expression fold change: 1.206
  UBE2E3 expression fold change: 0.823
  UBE2F expression fold change: 1.199
  UBE3A expression fold change: 1.133
  UBL5 expression fold change: 0.749
  UBXN2B Mean fold change: 1.412
  UNC13D expression fold change: 0.656
  UPF1 expression fold change: 0.745
  UPP1 Mean fold change: 1.696
  USP3 expression fold change: 1.367
  USP13 expression fold change: 0.835
  USP43 expression fold change: 0.526
  USP45 expression fold change: 1.299
  VHL expression fold change: 1.356
  VPS4B expression fold change: 0.923
  VPS45 expression fold change: 1.169
  WARS Mean fold change: 4.515
  WBSCR16 expression fold change: 0.745
  WDFY1 expression fold change: 1.061
  WDR67 Mean fold change: 1.463
  WDR73 expression fold change: 1.398
  WDR85 Mean fold change: 1.430
  WDR86 Mean fold change: 1.956
  WI2-3658N16.1 Mean fold change: 2.029
  XBP1 Mean fold change: 1.642
  XPNPEP3 Mean fold change: 1.531
  XPO5 expression fold change: 1.247
  XPO7 expression fold change: 0.941
  XPOT Mean fold change: 2.053
  XRCC6BP1 expression fold change: 1.139
  YAP1 expression fold change: 1.104
  YARS Mean fold change: 1.734
  ZBED1 expression fold change: 0.668
  ZBED5 expression fold change: 1.276
  ZBTB8A expression fold change: 1.143
  ZBTB26 expression fold change: 1.398
  ZBTB34 expression fold change: 1.406
  ZC3H4 expression fold change: 0.785
  ZC3H7A expression fold change: 0.841
  ZC3H8 Mean fold change: 1.710
  ZC3H14 expression fold change: 1.133
  ZCCHC4 expression fold change: 1.276
  ZCCHC8 expression fold change: 1.219
  ZCCHC9 expression fold change: 1.340
  ZFAND1 Mean fold change: 1.472
  ZFP30 expression fold change: 1.219
  ZFP36L2 expression fold change: 1.274
  ZFP64 expression fold change: 1.227
  ZFP161 Mean fold change: 1.683
  ZFYVE20 expression fold change: 1.201
  ZFYVE27 expression fold change: 1.318
  ZHX2 Mean fold change: 1.409
  ZIC2 Mean fold change: 1.423
  ZNF12 expression fold change: 1.245
  ZNF25 Mean fold change: 1.879
  ZNF28 expression fold change: 1.179
  ZNF91 expression fold change: 1.253
  ZNF133 expression fold change: 1.224
  ZNF184 expression fold change: 1.308
  ZNF193 expression fold change: 1.323
  ZNF195 expression fold change: 1.289
  ZNF217 Mean fold change: 1.446
  ZNF239 Mean fold change: 1.543
  ZNF252 Mean fold change: 1.609
  ZNF295 Mean fold change: 1.482
  ZNF319 expression fold change: 1.386
  ZNF320 expression fold change: 1.362
  ZNF354A expression fold change: 1.350
  ZNF354B Mean fold change: 1.466
  ZNF410 Mean fold change: 1.435
  ZNF419 Mean fold change: 1.789
  ZNF433 Mean fold change: 1.676
  ZNF445 expression fold change: 1.297
  ZNF493 Mean fold change: 1.482
  ZNF500 expression fold change: 1.175
  ZNF547 expression fold change: 1.209
  ZNF554 expression fold change: 1.212
  ZNF558 Mean fold change: 1.502
  ZNF566 expression fold change: 1.349
  ZNF567 expression fold change: 1.133
  ZNF592 expression fold change: 1.148
  ZNF619 expression fold change: 1.402
  ZNF664 expression fold change: 1.294
  ZNF669 expression fold change: 1.198
  ZNF700 expression fold change: 1.242
  ZNF706 expression fold change: 1.373
  ZNF746 expression fold change: 1.115
  ZNF747 expression fold change: 1.143
  ZNF764 expression fold change: 1.241
  ZNF770 Mean fold change: 1.508
  ZNF780A expression fold change: 1.192
  ZNF780B expression fold change: 1.397
  ZNF800 expression fold change: 1.234
  ZRSR2 expression fold change: 1.249
  ZSCAN12 Mean fold change: 1.516
  ZSCAN30 Mean fold change: 1.472
  ZSWIM7 expression fold change: 1.339
  fold change in expression of gene APBB1: 0.456
  fold change in expression of gene C19orf21: 0.393
  fold change in expression of gene CACNG4: 0.431
  fold change in expression of gene CAV1: 0.418
  fold change in expression of gene CDKN2AIP: 0.467
  fold change in expression of gene CITED2: 0.434
  fold change in expression of gene COL9A3: 0.376
  fold change in expression of gene CRISPLD2: 0.367
  fold change in expression of gene CSDC2: 0.362
  fold change in expression of gene CTGF: 0.371
  fold change in expression of gene CYR61: 0.369
